How the values were obtained:
[1] = system: MIA PaCa-2 cells; assay: Growth inhibition activity on KRAS-G12C mutant cell line (MIA PaCa-2), CellTiter-Glo 3D; type: cell-based, human; conditions: MIA PaCa-2, 3-day culture with compound
Summary of the method: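 Luminescence readout (CellTiter-Glo 3D) after 3 days of compound treatment at 37 °C, 5% CO2, 0.2% final DMSO, gave % growth inhibition versus no-compound wells, from which IC50 (nM) was derived; cells had been plated in 10% FBS RPMI1640 one day before dosing.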

[2] = biological target: Gppcp-bound recombinant K-Ras4B G12C mutant protein (amino acids 1-169, C51S/C80L/C118S) (Homo sapiens, UniProt P01116, C118S/C51S/C80L/G12C); assay: KRASG12C binding assay (LC-MS, compound binding rate); conditions: test compound final concentration 0.5 μM, 25° C., 1 hour
Summary of the method: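 Covalent adduct formation measured by deconvoluted intact-mass LC-MS after 1 h at 25 °C with compound at 0.5 μM final and 50 nM Gppcp-loaded KRAS G12C (residues 1-169, C51S/C80L/C118S). Buffer: TBS, 0.1 mM TCEP, 0.25 mM MgCl2, 50 μM Gppcp. Binding % = one-molecule adduct/(unbound + all adducts), binned A ≥80, B 60–80, C 40–60, D 20–40, E <20.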

[3] = biological target: T1, interaction between recombinant K-Ras4B G12C mutant protein and cRAF RAS-binding domain (cRAF-RBD) (Homo sapiens, UniProt P01116, G12C); assay: Inhibitory activity on interaction between KRAS G12C and cRAF (Alpha technology); type: biochemical; conditions: GMPPNP-bound KRAS G12C incubated with compound at 25° C. for 1 hour, then cRAF-RBD; Alpha signal
T1 construct: made in house; host or cells: E. coli
Summary of the method: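 Alpha readout of cRAF-RBD (aa 50-132) binding to KRAS G12C (aa 1-169) after 1.5 h RT, following 1 h, 25° C compound preincubation with GMPPNP-bound protein (pH 7.5 Tris, 1 mM MgCl2, TCEP, Tween 20). IC50 fitted from titrations, with GDP-bound KRAS as 100% and DMSO as 0% inhibition.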

| Compound | IC50 ([1]; Homo sapiens, MIA PaCa-2, 72 h) [nM] | IC50 [3] [nM] | IC50 [1] [nM] | binding rate [2] |
| --- | --- | --- | --- | --- |
| CO[C@H]1CC[C@H](NC/C=C/C(=O)Nc2c(F)cc(C(=O)c3cc(I)c4c(-c5c(C)cc6c(nc(C)n6C)c5Cl)cccn34)cc2F)CC1 [Example 75, (E)-N-(4-(8-(4-chloro-1,2,6-trimethyl-1H-benzo[d]imidazol-5-yl)-1-iodoindolizine-3-carbonyl)-2,6-difluorophenyl)-4-(((1r,4r)-4-methoxycyclohexyl)amino)but-2-enamide] | 230 | 37 |  | A (A binding rate of 80% or more is rated “A”) |
| C#Cc1cc2c(nc(C)n2C)c(Cl)c1-c1cccn2c(C(=O)c3cc(F)c(NC(=O)/C=C/CN[C@H]4CC[C@H](OC)CC4)c(F)c3)ccc12 [Example 43, (E)-N-(4-(8-(4-chloro-6-ethynyl-1,2-dimethyl-1H-benzo[d]imidazol-5-yl)indolizine-3-carbonyl)-2,6-difluorophenyl)-4-(((1r,4r)-4-methoxycyclohexyl)amino)but-2-enamide] | 160 | 88 |  | A (A binding rate of 80% or more is rated “A”) |
| Cc1cc2c(nc([C@@H](C)O)n2C)c(Cl)c1-c1cccn2c(C(=O)c3cc(F)c(NC(=O)/C=C/CNC(C)(C)C)c(F)c3)ccc12 [Example 98, (R,E)-4-(tert-butylamino)-N-(4-(8-(4-chloro-2-(1-hydroxyethyl)-1,6-dimethyl-1H-benzo[d]imidazol-5-yl)indolizine-3-carbonyl)-2,6-difluorophenyl)but-2-enamide] | 42 | 41 |  | A (A binding rate of 80% or more is rated “A”) |
| Cc1nc2cc(-c3cccn4c(C(=O)c5cc(F)c(NC(=O)/C=C/CN[C@H]6CC[C@H](F)CC6)c(F)c5)ccc34)c(C(F)(F)F)cc2n1C [Example 80, (E)-N-(4-(8-(1,2-dimethyl-6-(trifluoromethyl)-1H-benzo[d]imidazol-5-yl)indolizine-3-carbonyl)-2,6-difluorophenyl)-4-(((1r,4r)-4-fluorocyclohexyl)amino)but-2-enamide] | 85 | 59 |  | A (A binding rate of 80% or more is rated “A”) |
| CO[C@H]1CC[C@H](NC/C=C/C(=O)Nc2c(F)cc(C(=O)c3ccc4c(-c5c(C6CC6)cc6c(nc(C)n6C)c5Cl)cccn34)cc2F)CC1 [Example 38] | 78 | 77 |  | A (A binding rate of 80% or more is rated “A”) |
| CO[C@H]1CC[C@H](NC/C=C/C(=O)Nc2c(F)cc(C(=O)c3ccc4c(-c5c(Br)cc6c(nc(C)n6C)c5Cl)cccn34)cc2F)CC1 [Example 31, (E)-N-(4-(8(6-bromo-4-chloro-1,2-dimethyl-1H-benzo[d]imidazol-5-yl)indolizine-3-carbonyl)-2,6-difluorophenyl)-4-(((1r,4r)-4-methoxycyclohexyl)amino)but-2-enamide] | 64 | 62 |  | A (A binding rate of 80% or more is rated “A”) |
| Cc1cc2c(nc(CC#N)n2C)c(Cl)c1-c1cccn2c(C(=O)c3cc(F)c(NC(=O)/C=C/CNC(C)(C)C)c(F)c3)ccc12 [Example 74, (E)-4-(tert-butylamino)-N-(4-(8-(4-chloro-2-(cyanomethyl)-1,6-dimethyl-1H-benzo[d]imidazol-5-yl)indolizine-3-carbonyl)-2,6-difluorophenyl)but-2-enamide] | 65 | 64 |  | A (A binding rate of 80% or more is rated “A”) |
| C/C=C/c1cc(C(=O)c2cc(F)c(NC(=O)/C=C/CN[C@H]3CC[C@H](OC)CC3)c(F)c2)n2cccc(-c3c(C)cc4c(nc(C)n4C)c3Cl)c12 [Example 96, (E)-N-(4-(8-(4-chloro-1,2,6-trimethyl-1H-benzo[d]imidazol-5-yl)-1-((E)-prop-1-en-1-yl)indolizine-3-carbonyl)-2,6-difluorophenyl)-4-(((1r,4r)-4-methoxycyclohexyl)amino)but-2-enamide] | 130 | 36 |  | A (A binding rate of 80% or more is rated “A”) |
| Cc1nc2cc(-c3cccn4c(C(=O)c5cc(F)c(NC(=O)/C=C/CNC6CCCOC6)c(F)c5)ccc34)c(C(F)(F)F)cc2n1C (stereo not drawn) [Example 78, (E)-N-(4-(8-(1,2-dimethyl-6-(trifluoromethyl)-1H-benzo[d]imidazol-5-yl)indolizine-3-carbonyl)-2,6-difluorophenyl)-4-((tetrahydro-2H-pyran-3-yl)amino)but-2-enamide] | 120 | 51 |  | A (A binding rate of 80% or more is rated “A”) |
| COCC(C)(C)NC/C=C/C(=O)Nc1c(F)cc(C(=O)c2ccc3c(-c4cc5ncn(C)c5cc4C(F)(F)F)cccn23)cc1F [Example 8] | 130 | 89 |  | A (A binding rate of 80% or more is rated “A”) |
| C=Cc1cc(C(=O)c2cc(F)c(NC(=O)/C=C/CN[C@H]3CC[C@H](OC)CC3)c(F)c2)n2cccc(-c3c(C)cc4c(nc(C)n4C)c3Cl)c12 [Example 88, (E)-N-(4-(8(4-chloro-1,2,6-trimethyl-1H-benzo[d]imidazol-5-yl)-1-vinylindolizine-3-carbonyl)-2,6-difluorophenyl)-4-(((1r,4r)-4-methoxycyclohexyl)amino)but-2-enamide] | 130 | 26 |  | A (A binding rate of 80% or more is rated “A”) |
| COc1cc(N2CCCC2=O)cc(Cl)c1-c1cccn2c(C(=O)c3cc(F)c(NC(=O)/C=C/CNC(C)(C)C)c(F)c3)ccc12 [Example 21, (E)-4-(tert-butylamino)-N-(4-(8-(2-chloro-6-methoxy-4-(2-oxopyrrolidin-1-yl)phenyl)indolizine-3-carbonyl)-2,6-difluorophenyl)but-2-enamide] | 180 | 97 |  | A (A binding rate of 80% or more is rated “A”) |

Further lines, with some results ahead:

| IC50 ([1]; Homo sapiens, MIA PaCa-2, 72 h) [nM] | IC50 [3] [nM] | IC50 [1] [nM] | Compound | binding rate [2] |
| --- | --- | --- | --- | --- |
|  | 29 | 29 | Cc1cc2c(nc(C)n2C)c(Cl)c1-c1cccn2c(C(=O)c3cc(F)c(NC(=O)/C=C/CNC(C)(C)C)c(F)c3)ccc12 (single isomer, unassigned) [Example 18-1, (E)-4-(tert-butylamino)-N-(4-(8-(4-chloro-1,2,6-trimethyl-1H-benzo[d]imidazol-5-yl)indolizine-3-carbonyl)-2,6-difluorophenyl)but-2-enamide] | A (A binding rate of 80% or more is rated “A”) |
|  | 220 | 570 | CO[C@H]1CC[C@H](NC/C=C/C(=O)Nc2c(F)cc(C(=O)c3ccc4c(-c5c(C(C)C)cc6c(nc(C)n6C)c5Cl)cccn34)cc2F)CC1 (single isomer, unassigned) [Example 71-2, (E)-N-(4-(8-(4-chloro-6-isopropyl-1,2-dimethyl-1H-benzo[d]imidazol-5-yl)indolizine-3-carbonyl)-2,6-difluorophenyl)-4-(((1r,4r)-4-methoxycyclohexyl)amino)but-2-enamide] | A (A binding rate of 80% or more is rated “A”) |
|  | 8.71 | 46.5 | C=Cc1cc(C(=O)c2cc(F)c(NC(=O)/C=C/CNC3(C)CC3)c(F)c2)n2cccc(-c3c(OC)cc4c(nc(C)n4C)c3F)c12 (single isomer, unassigned) [Example 111-1, (E)-N-(2,6-difluoro-4-(8-(4-fluoro-6-methoxy-1,2-dimethyl-1H-benzo[d]imidazol-5-yl)-1-vinylindolizine-3-carbonyl)phenyl)-44-((1-methylcyclopropyl)amino)but-2-enamide] | A (A binding rate of 80% or more is rated “A”) |
|  | 1900 | 2300 | COc1c(-c2cccn3c(C(=O)c4cc(F)c(NC(=O)/C=C/CNC5CCOCC5)c(F)c4)ccc23)c(C(F)(F)F)cc2c1nc(C)n2C (single isomer, unassigned) [Example 61-1, (E)-N-(2,6-difluoro-4-(8-(4-methoxy-1,2-dimethyl-6-(trifluoromethyl)-1H-benzo[d]imidazol-5-yl)indolizine-3-carbonyl)phenyl)-4-((tetrahydro-2H-pyran-4-yl)amino)but-2-enamide] | B (a binding rate of 60% or more and less than 80% is rated “B”) |
|  | 56 | 60 | COc1cc2c(nc(C)n2C)c(Cl)c1-c1cccn2c(C(=O)c3cc(F)c(NC(=O)/C=C/CNC(C)(C)C)c(F)c3)ccc12 (single isomer, unassigned) [Example 36-2, (E)-4-(tert-butylamino)-N-(4-(8-(4-chloro-6-methoxy-1,2-dimethyl-1H-benzo[d]imidazol-5-yl)indolizine-3-carbonyl)-2,6-difluorophenyl)but-2-enamide] | A (A binding rate of 80% or more is rated “A”) |

Reference: patent publication US20240246968A1, “SMALL MOLECULE INHIBITORS OF KRAS G12C MUTANT” (Merck Sharp & Dohme LLC, priority 2021, published 2024)
